Measurements from patent publication US10662475B2, “Compositions and methods for the treatment and prevention of antipsychotic medication-induced weight gain” (Centre for Addiction and Mental Health, priority 2014, dated 2020).
Blank lines part the entries; values can stand above or below the molecule they belong to.

Columns and labels:
[1] = for weight gain (% change from baseline weight): total sample, European ancestry subjects with schizophrenia or schizoaffective disorder, by antipsychotic, mean ± SD
Protocol: Our sample comprised 66 European ancestry subjects aged 18-60 years with schizophrenia or schizoaffective disorder according to Diagnostic and Statistical Manual of Mental Disorders, Third Edition, Revised, or Fourth Edition (DSM-IIIR or DSM-IV) criteria.
Patients with a history of treatment refractory schizophrenia or schizoaffective disorder, or intolerance to typical antipsychotics, were treated with clozapine for 6 weeks and assessed for response and weight gain. These patients had never received a second generation antipsychotic prior to enrollment in the study, and underwent a 7-14 day washout period where they received no antipsychotic medication prior to receiving clozapine.
All analyses were done using R version 2.15.1 statistical software (R Core Team, 2012), with the rms package. Categorical variables were compared across study centres using Pearson chi-square test and continuous variables were compared using ANOVA, unless the assumptions of these tests were violated in which case Fisher's exact test and the Kruskal-Wallis test were used. Linear regression was used to test for differences in weight gain (% change from baseline weight) between genotypic groups using additive genotypic model with adjustment for relevant covariates.

TSPO = target: T1, TSPO (Mus musculus, UniProt P50637); details: high-fat diet induced obese mice; cited from earlier work
T1 construct: host or cells: high-fat diet induced obese mice (in vivo)

GLP-1 = details: rat models; effects seem to occur after a longer treatment period; cited from earlier work
[2] = adjunct treatment, human studies; cited from earlier work
[3] = Antipsychotic-induced weight change, orexin receptor (HCRTR1/HCRTR2) SNP association study; assay type: in vivo, human; details: Sample HYM n = 74, all on clozapine, 6 weeks
Text: Written informed consent was obtained from all participants. […] Exclusion criteria for these studies included pregnancy, organic brain disorder, severe head injuries, previous medical conditions which required treatment and were not stable (Hepatitis C, HIV, Thyroid disorder or diabetes mellitus), substance dependence, clinically relevant mental retardation and severe personality disorder.
Genomic DNA was extracted from blood samples using the high-salt method (Lahiri and Nurnberger 1991). […] A total of 5 tagSNPs covering a 20 kb region including HCRTR1 (˜9.6 kb) and 28 tagSNPs covering 120 kb including HCRTR2 (˜108 kb) were included in this study.
Analysis of covariance (ANCOVA) was used to test association between genotype and weight change (%) from baseline as the dependent variable, genotypes as fixed factor and, baseline weight and duration of treatment as covariates. Corrections for multiple tests were calculated using Single Nucleotide Polymorphism Spectral Decomposition (SNPSpD, (Nyholt 2004)). Power calculations were performed using Quanto 1.2.4 (Gauderman and Morrison 2006). Assuming a minor allele frequency of 0.25 and a sample size of n=130, we had more than 80% power to detect a mean difference of 3.6% between carriers and non-carriers of the risk genotype in an additive or dominant model.

[4] = total sample N=128, patients treated with clozapine, risperidone, olanzapine or haloperidol

- weight gain (% change from baseline weight) [1]: −4.17%±15.2
SMILES: O=C(CCCN1CCC(O)(c2ccc(Cl)cc2)CC1)c1ccc(F)cc1 [haloperidol]

SMILES: CCC(C)N(C)C(=O)c1cc2ccccc2c(-c2ccccc2Cl)n1 (centres unmarked) [PK1195]
- lipid accumulation in the liver, free and LDL cholesterol, and blood glucose levels (TSPO): significantly lowered

SMILES: OCCOCCN1CCN(C2=Nc3ccccc3Sc3ccccc32)CC1 [quetiapine]
- GLP-1 levels (GLP-1): decrease GLP-1 levels

SMILES: CC(=O)[C@H]1CC[C@H]2[C@@H]3CC=C4C[C@@H](O)CC[C@]4(C)[C@H]3CC[C@]12C [pregnenolone]
- symptoms of schizophrenia [2]: improves symptoms of schizophrenia

- Weight gain <7%, n (%) [3]: 47 (63.5) n (%)
- Weight gain ≥7%, n (%) [3]: 27 (36.5) n (%)
- Weight change ([3]; mean ± SD): 3.76 ± 4.4 kg
- Weight change (%) ([3]; mean ± SD): 5.35 ± 6.3%
- weight gain [4]: highest weight gain
- Weight change ± SD (%) ([1]; Sample HYM n = 54, all on clozapine, 6 weeks): 3.84 ± 5.8%
- weight gain (% change from baseline weight) [1]: 3.99%±5.8
SMILES: CN1CCN(C2=Nc3cc(Cl)ccc3Nc3ccccc32)CC1 [clozapine]
